According to US20250333424A1, “ANTIVIRAL COMPOUNDS” (Gilead Sciences, Inc., priority 2024, published 2025):
pEC50: −log10 of the molar value.

These molecules were tested on monocytic THP1 cells infected with HIV VSV-G pseudotyped GFP-NEF reporter virus (assay: cells). Conditions: Human immunodeficiency virus 1, THP-1, 24 h.
Format: cell-based

Row | Compound | pEC50
1 | Cc1cc(/C=C/C#N)cc(C)c1Oc1nc(NC23CC(C#N)(C2)C3)nc2nc(Nc3cccnc3)[nH]c12 [Compound 69, (E)-3-((6-(4-(2-cyanovinyl)-2,6-dimethylphenoxy)-8-(pyridin-3-ylamino)-7H-purin-2-yl)amino)bicyclo[1.1.1]pentane-1-carbonitrile] | 6.30
2 | Cc1cc(/C=C/C#N)cc(C)c1Oc1nc(NC23CC(C#N)(C2)C3)nc2nn3c(c12)CCCC3 [Example 256, (E)-3-((4-(4-(2-cyanovinyl)-2,6-dimethylphenoxy)-5,6,7,8-tetrahydropyrido[1′,2′:1,5]pyrazolo[3,4-d]pyrimidin-2-yl)amino)bicyclo[1.1.1]pentane-1-carbonitrile] | 7.44
3 | Cc1cc(/C=C/C#N)cc(C)c1Oc1nc(NC23CC(C#N)(C2)C3)nc2nn(-c3ccn(C)n3)cc12 [Example 231, (E)-3-((4-(4-(2-cyanovinyl)-2,6-dimethylphenoxy)-2-(1-methyl-1H-pyrazol-3-yl)-2H-pyrazolo[3,4-d]pyrimidin-6-yl)amino)bicyclo[1.1.1]pentane-1-carbonitrile] | 7.51
4 | Cc1cc(/C=C/C#N)cc(C)c1Oc1nc(NC23CC(C#N)(C2)C3)nc2nc(C)n(Cc3ccn[nH]3)c12 (single isomer, unassigned) [Compound 18, (E)-3-((7-((1H-pyrazol-5-yl)methyl)-6-(4-(2-cyanovinyl)-2,6-dimethylphenoxy)-8-methyl-7H-purin-2-yl)amino)bicyclo[1.1.1]pentane-1-carbonitrile] | 7.62
5 | Cc1cc(/C=C/C#N)cc(C)c1Oc1nc(NC23CC(C#N)(C2)C3)nc2[nH]nc(O)c12 [Compound 110, (E)-3-((4-(4-(2-cyanovinyl)-2,6-dimethylphenoxy)-3-hydroxy-1H-pyrazolo[3,4-d]pyrimidin-6-yl)amino)bicyclo[1.1.1]pentane-1-carbonitrile] | < 6.00
6 | Cc1cc(/C=C/C#N)cc(C)c1Oc1nc(NC23CC(C#N)(C2)C3)nc2c1CCC2(F)F [Compound 79, (E)-3-((4-(4-(2-cyanovinyl)-2,6-dimethylphenoxy)-7,7-difluoro-6,7-dihydro-5H-cyclopenta[d]pyrimidin-2-yl)amino)bicyclo[1.1.1]pentane-1-carbonitrile] | 7.48
7 | Cc1cc(/C=C/C#N)cc(C)c1Oc1nc(NC23CC(C#N)(C2)C3)nc2c1[C@H]1OC[C@H](F)CN1C2=O (single isomer, unassigned) [Compound 281] | 7.13
8 | Cc1cc(/C=C/C#N)cc(C)c1Oc1nc(NC23CC(C#N)(C2)C3)nc2c1C1(C)OCCN1C2=O (stereo not drawn) [Compound 273, (E)-3-((4-(4-(2-cyanovinyl)-2,6-dimethylphenoxy)-4b-methyl-9-oxo-4b,6,7,9-tetrahydrooxazolo[3′,2′:1,5]pyrrolo[3,4-d]pyrimidin-2-yl)amino)bicyclo[1.1.1]pentane-1-carbonitrile] | 7.80
9 | Cc1cc(/C=C/C#N)cc(C)c1Oc1nc(NC23CC(C#N)(C2)C3)nc2c1C(C)N(Cc1ccnn1C)C2=O (stereo not drawn) [Example 212, (E)-3-((4-(4-(2-cyanovinyl)-2,6-dimethylphenoxy)-5-methyl-6-((1-methyl-1H-pyrazol-5-yl)methyl)-7-oxo-6,7-dihydro-5H-pyrrolo[3,4-d]pyrimidin-2-yl)amino)bicyclo[1.1.1]pentane-1-carbonitrile] | 7.33
10 | Cc1cc(/C=C/C#N)cc(C)c1Oc1nc(NC23CC(C#N)(C2)C3)nc2c1[C@@H]1OCCCN1C2=O [Compound 279, (S,E)-3-((4-(4-(2-cyanovinyl)-2,6-dimethylphenoxy)-10-oxo-4b,7,8,10-tetrahydro-6H-pyrimido[5′,4′:3,4]pyrrolo[2,1-b][1,3]oxazin-2-yl)amino)bicyclo[1.1.1]pentane-1-carbonitrile] | 7.24
11 | COCCn1cc(N2C(=O)c3nc(NC45CC(C#N)(C4)C5)nc(Oc4c(C)cc(/C=C/C#N)cc4C)c3C2C)cn1 (stereo not drawn) [Example 219, (E)-3-((4-(4-(2-cyanovinyl)-2,6-dimethylphenoxy)-6-(1-(2-methoxyethyl)-1H-pyrazol-4-yl)-5-methyl-7-oxo-6,7-dihydro-5H-pyrrolo[3,4-d]pyrimidin-2-yl)amino)bicyclo[1.1.1]pentane-1-carbonitrile] | 7.39
12 | Cc1cc(/C=C/C#N)cc(C)c1Oc1nc(NC23CC(C#N)(C2)C3)nc2c1C(C)N(c1cnn(C)c1C)C2=O (stereo not drawn) [Example 221, (E)-3-((4-(4-(2-cyanovinyl)-2,6-dimethylphenoxy)-6-(1,5-dimethyl-1H-pyrazol-4-yl)-5-methyl-7-oxo-6,7-dihydro-5H-pyrrolo[3,4-d]pyrimidin-2-yl)amino)bicyclo[1.1.1]pentane-1-carbonitrile] | 7.14
13 | CCc1cc(/C=C/C#N)cc(Cl)c1Oc1nc(NC23CC(C#N)(C2)C3)nc2[nH]nc(C)c12 [Example 1, (E)-3-((4-(2-chloro-4-(2-cyanovinyl)-6-ethylphenoxy)-3-methyl-1H-pyrazolo[3,4-d]pyrimidin-6-yl)amino)bicyclo[1.1.1]pentane-1-carbonitrile] | 7.33
14 | Cc1cc(/C=C/C#N)cc(C)c1Oc1nc(NC23CC(C#N)(C2)C3)nc2nn(-c3ccccc3)cc12 [Compound 74, (E)-3-((4-(4-(2-cyanovinyl)-2,6-dimethylphenoxy)-2-phenyl-2H-pyrazolo[3,4-d]pyrimidin-6-yl)amino)bicyclo[1.1.1]pentane-1-carbonitrile] | 6.79
15 | Cc1cc(/C=C/C#N)c(C)c(C)c1Oc1nc(NC23CC(C#N)(C2)C3)nc2nn(C)cc12 [Compound 8, (E)-3-((4-(4-(2-cyanovinyl)-2,3,6-trimethylphenoxy)-2-methyl-2H-pyrazolo[3,4-d]pyrimidin-6-yl)amino)bicyclo[1.1.1]pentane-1-carbonitrile] | 7.35
16 | Cc1cc(/C=C/C#N)cc(C)c1Oc1nc(NC23CC(C#N)(C2)C3)nc2c1nc(C)n2Cc1ccn[nH]1 (single isomer, unassigned) [Compound 19, (E)-3-((9-((1H-pyrazol-5-yl)methyl)-6-(4-(2-cyanovinyl)-2,6-dimethylphenoxy)-8-methyl-9H-purin-2-yl)amino)bicyclo[1.1.1]pentane-1-carbonitrile] | 7.04
17 | Cc1cc(/C=C/C#N)cc(C)c1Oc1nc(NC23CC(C#N)(C2)C3)nc2nc3n(c12)C[C@@H](F)CO3 (single isomer, unassigned) [Compound 191] | 7.29
18 | Cc1cc(/C=C/C#N)cc(C)c1Oc1nc(NC23CC(C#N)(C2)C3)nc2nc(C3CCCC3)[nH]c12 [Compound 53, (E)-3-((6-(4-(2-cyanovinyl)-2,6-dimethylphenoxy)-8-cyclopentyl-7H-purin-2-yl)amino)bicyclo[1.1.1]pentane-1-carbonitrile] | 6.63
19 | Cc1cc(/C=C/C#N)cc(C)c1Oc1nc(NC23CC(C#N)(C2)C3)nc2nc3n(c12)C[C@H](O)CO3 (single isomer, unassigned) [Compound 194] | 7.30
20 | Cc1cc(/C=C/C#N)cc(C)c1Oc1nc(NC23CC(C#N)(C2)C3)nc2c1C1(C)OCC3(CCOCC3)CN1C2=O (stereo not drawn) [Example 200, (E)-3-((4′-(4-(2-cyanovinyl)-2,6-dimethylphenoxy)-4b′-methyl-10′-oxo-2,3,4b′,5,6,10′-hexahydro-6′H,8′H-spiro[pyran-4,7′-pyrimido[5′,4′:3,4]pyrrolo[2,1-b][1,3]oxazin]-2′-yl)amino)bicyclo[1.1.1]pentane-1-carbonitrile] | 6.76
21 | CCN1C(=O)c2nc(NC34CC(C#N)(C3)C4)nc(Oc3c(C)cc(/C=C/C#N)cc3C)c2C1C (stereo not drawn) [Example 204, (E)-3-((4-(4-(2-cyanovinyl)-2,6-dimethylphenoxy)-6-ethyl-5-methyl-7-oxo-6,7-dihydro-5H-pyrrolo[3,4-d]pyrimidin-2-yl)amino)bicyclo[1.1.1]pentane-1-carbonitrile] | 7.63
22 | Cc1cc(/C=C/C#N)cc(C)c1Oc1nc(NC23CC(C#N)(C2)C3)nc2c1CNC2 [Compound 135, (E)-3-((4-(4-(2-cyanovinyl)-2,6-dimethylphenoxy)-6,7-dihydro-5H-pyrrolo[3,4-d]pyrimidin-2-yl)amino)bicyclo[1.1.1]pentane-1-carbonitrile] | 6.56
23 | Cc1cc(/C=C/C#N)cc(C)c1Oc1nc(NC23CC(C#N)(C2)C3)nc2nn(CCC(F)F)c(C)c12 [Compound 102, (E)-3-((4-(4-(2-cyanovinyl)-2,6-dimethylphenoxy)-2-(3,3-difluoropropyl)-3-methyl-2H-pyrazolo[3,4-d]pyrimidin-6-yl)amino)bicyclo[1.1.1]pentane-1-carbonitrile] | 7.65
24 | Cc1cc(/C=C/C#N)cc(C)c1Oc1nc(NC23CC(C#N)(C2)C3)nc2c1C1(C)SCCCN1C2=O (stereo not drawn) [Example 246, (E)-3-((4-(4-(2-cyanovinyl)-2,6-dimethylphenoxy)-4b-methyl-10-oxo-4b,7,8,10-tetrahydro-6H-pyrimido[5′,4′:3,4]pyrrolo[2,1-b][1,3]thiazin-2-yl)amino)bicyclo[1.1.1]pentane-1-carbonitrile] | 7.38
25 | Cc1cc(/C=C/C#N)cc(C)c1Oc1nc(NC23CC(C#N)(C2)C3)nc2c1[C@H](C)N(CC(F)F)C2=O [Example 240, (S,E)-3-((4-(4-(2-cyanovinyl)-2,6-dimethylphenoxy)-6-(2,2-difluoroethyl)-5-methyl-7-oxo-6,7-dihydro-5H-pyrrolo[3,4-d]pyrimidin-2-yl)amino)bicyclo[1.1.1]pentane-1-carbonitrile] | 7.45
26 | Cc1cc(/C=C/C#N)cc(C)c1Oc1nc(NC23CC(C#N)(C2)C3)nc2[nH]nc(C(F)F)c12 [Compound 91, (E)-3-((4-(4-(2-cyanovinyl)-2,6-dimethylphenoxy)-3-(difluoromethyl)-1H-pyrazolo[3,4-d]pyrimidin-6-yl)amino)bicyclo[1.1.1]pentane-1-carbonitrile] | 7.37
27 | Cc1cc(/C=C/C#N)cc(C)c1Oc1nc(NC23CC(C#N)(C2)C3)nc2c1c(C)nn2CC#N [Compound 100, (E)-3-((1-(cyanomethyl)-4-(4-(2-cyanovinyl)-2,6-dimethylphenoxy)-3-methyl-11H-pyrazolo[3,4-d]pyrimidin-6-yl)amino)bicyclo[1.1.1]pentane-1-carbonitrile] | 7.44
